Reference: US20160046618A1, “Cyclopropyl Fused Thiazin-2-Amine Compounds as Beta-Secretase Inhibitors and Methods of Use” (AMGEN INC., priority 2014, published 2016)

Columns and labels:
human recombinant BACE1 = human recombinant BACE1 (Homo sapiens (Human), UniProt P56817); experiment: In vitro enzymatic BACE1 FRET assay; format: biochemical; conditions: read-out: IC50 IP (μM) BACE1 enzyme
In short: (§1)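 Fluorescence from cleavage of a quenched peptide spanning the BACE site (50 nM) was read at 488 nm excitation, 590 nm emission. Purified enzyme (Ni-NTA) and compound reacted for one hour before a Tris stop shifted pH to neutral.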

Recombinant Cat D = Recombinant Cat D (Homo sapiens (Human), UniProt P07339); experiment: In vitro enzymatic Cathepsin D (Cat D) FRET assay; format: biochemical; conditions: read-out: IC50 IP (μM) CatD
Sequence of Recombinant Cat D (P07339 65-412): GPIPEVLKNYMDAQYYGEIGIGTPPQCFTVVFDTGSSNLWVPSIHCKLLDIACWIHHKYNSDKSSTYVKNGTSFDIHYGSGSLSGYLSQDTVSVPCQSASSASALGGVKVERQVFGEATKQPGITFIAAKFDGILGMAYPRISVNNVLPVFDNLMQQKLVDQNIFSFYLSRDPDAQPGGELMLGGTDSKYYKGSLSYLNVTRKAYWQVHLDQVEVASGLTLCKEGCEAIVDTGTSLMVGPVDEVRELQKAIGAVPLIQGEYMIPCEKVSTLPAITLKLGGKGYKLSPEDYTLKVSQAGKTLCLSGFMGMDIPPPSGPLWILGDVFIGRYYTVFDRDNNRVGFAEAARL
In short: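 Fluorescence at 500 nm excitation and 580 nm emission reports cleavage of a quenched fluorophore–quencher peptide (20 nM) by CHO-expressed Cat D. Reactions ran one hour in 0.05 M citrate pH 3.5, 5 mM CHAPS, 10% DMSO final before a Tris stop raised pH to neutrality.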

human recombinant BACE2 = human recombinant BACE2 (Homo sapiens (Human), UniProt Q9Y5Z0); experiment: In vitro enzymatic BACE2 FRET assay; format: biochemical; conditions: read-out: IC50 IP (μM) BACE2 enzyme
Sequence of human recombinant BACE2 (Q9Y5Z0 63-518): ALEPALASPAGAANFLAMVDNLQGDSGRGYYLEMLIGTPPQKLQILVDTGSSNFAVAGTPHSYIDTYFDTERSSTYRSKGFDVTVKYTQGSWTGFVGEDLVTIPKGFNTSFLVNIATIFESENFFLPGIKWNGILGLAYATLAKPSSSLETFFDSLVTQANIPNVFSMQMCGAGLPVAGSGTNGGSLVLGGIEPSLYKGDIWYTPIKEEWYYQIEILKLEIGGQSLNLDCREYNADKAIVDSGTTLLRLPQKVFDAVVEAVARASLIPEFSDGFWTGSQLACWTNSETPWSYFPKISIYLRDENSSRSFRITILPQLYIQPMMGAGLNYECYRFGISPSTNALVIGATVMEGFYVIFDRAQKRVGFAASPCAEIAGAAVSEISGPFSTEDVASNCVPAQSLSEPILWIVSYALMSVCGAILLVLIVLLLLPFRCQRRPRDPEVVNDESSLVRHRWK
In short: as §1

[1] = test system: Aβ40 in conditioned medium of cells stably expressing Amyloid Precursor Protein (APP); experiment: In vitro BACE-1 cell-based assay (Aβ40 sandwich ELISA); conditions: read-out: IC50 IP (μM) BACE1 cell
In short: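 Aβ40 in supernatants measured by time-resolved fluorescence sandwich ELISA, with pAb40 as capture and biotin-6E10 as detector antibody, each incubated at 4 °C.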

Sequence of human recombinant BACE1 (P56817 46-501): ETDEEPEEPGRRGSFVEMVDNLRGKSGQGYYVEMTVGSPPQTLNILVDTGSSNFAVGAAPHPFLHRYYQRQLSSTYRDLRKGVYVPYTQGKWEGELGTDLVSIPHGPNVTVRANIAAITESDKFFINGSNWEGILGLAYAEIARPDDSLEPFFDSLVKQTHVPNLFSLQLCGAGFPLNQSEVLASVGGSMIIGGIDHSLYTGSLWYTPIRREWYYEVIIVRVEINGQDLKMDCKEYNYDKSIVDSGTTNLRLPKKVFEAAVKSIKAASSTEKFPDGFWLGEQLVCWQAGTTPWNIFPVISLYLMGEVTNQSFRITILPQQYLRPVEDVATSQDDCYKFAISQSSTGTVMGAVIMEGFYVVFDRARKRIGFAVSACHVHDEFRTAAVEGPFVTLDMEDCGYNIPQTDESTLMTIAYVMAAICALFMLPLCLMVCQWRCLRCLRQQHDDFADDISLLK

| IC50 (human recombinant BACE1) [µM] | IC50 (Recombinant Cat D) [µM] | IC50 (human recombinant BACE2) [µM] | IC50 [1] [µM] | Structure (SMILES) |
| --- | --- | --- | --- | --- |
| 0.00273 | 102 | 0.117 | 0.0788 | Cc1nc(OCC(F)(F)F)cnc1C(=O)Nc1cc(F)c(F)c([C@@]2(C)N=C(N)S[C@@]3(C(F)F)C[C@@H]23)c1 [Example 615, N-(3-((1S,5S,6S)-3-amino-1-(difluoromethyl)-5-methyl-2-thia-4-azabicyclo[4.1.0]hept-3-en-5-yl)-4,5-difluorophenyl)-3-methyl-5-(2,2,2-trifluoroethoxy)-2-pyrazinecarboxamide] |
| 0.00357 | > 400 | 0.158 | 0.0652 | C#C[C@H](C)Oc1cnc(C(=O)Nc2cc(F)c(F)c([C@@]3(C)N=C(N)S[C@@]4(C(F)F)C[C@@H]34)c2)c(C)n1 [Example 617, N-(3-((1S,5S,6S)-3-amino-1-(difluoromethyl)-5-methyl-2-thia-4-azabicyclo[4.1.0]hept-3-en-5-yl)-4,5-difluorophenyl)-3-methyl-5-(((1S)-1-methyl-2-propyn-1-yl)oxy)-2-pyrazinecarboxamide] |
| 0.00606 | 1020 | 0.0161 | 0.0557 | COC[C@]12C[C@H]1[C@@](C)(c1cc(NC(=O)c3ncc(OCC(F)(F)F)nc3C)cc(F)c1F)N=C(N)S2 [Example 618, N-(3-((1S,5S,6S)-3-amino-1-(methoxymethyl)-5-methyl-2-thia-4-azabicyclo[4.1.0]hept-3-en-5-yl)-4,5-difluorophenyl)-3-methyl-5-(2,2,2-trifluoroethoxy)-2-pyrazinecarboxamide] |
| 0.00439 | 655 | 0.175 | 0.0352 | C#C[C@H](C)Oc1cnc(C(=O)Nc2ccc(F)c([C@@]3(C)N=C(N)S[C@@]4(C(F)F)C[C@@H]34)c2)c(C)n1 [Example 619, N-(3-((1S,5S,6S)-3-amino-1-(difluoromethyl)-5-methyl-2-thia-4-azabicyclo[4.1.0]hept-3-en-5-yl)-4-fluorophenyl)-3-methyl-5-(((1S)-1-methyl-2-propyn-1-yl)oxy)-2-pyrazinecarboxamide] |
| 0.00832 | > 400 | 0.245 | 0.0437 | COC[C@]12C[C@H]1[C@@](C)(c1cc(NC(=O)c3ncc(OCC(F)(F)F)nc3C)ccc1F)N=C(N)S2 [Example 620, N-(3-((1S,5S,6S)-3-amino-1-(methoxymethyl)-5-methyl-2-thia-4-azabicyclo[4.1.0]hept-3-en-5-yl)-4-fluorophenyl)-3-methyl-5-(2,2,2-trifluoroethoxy)-2-pyrazinecarboxamide] |
| 0.0113 | 710 | 0.148 | 0.0197 | C#C[C@H](C)Oc1cnc(C(=O)Nc2ccc(F)c([C@@]3(C)N=C(N)S[C@@]4(COC)C[C@H]43)c2)c(C)n1 [Example 621, N-(3-((1S,5S,6S)-3-amino-1-(methoxymethyl)-5-methyl-2-thia-4-azabicyclo[4.1.0]hept-3-en-5-yl)-4-fluorophenyl)-3-methyl-5-(((1S)-1-methyl-2-propyn-1-yl)oxy)-2-pyrazinecarboxamide] |
| 0.00575 | 641 | 0.0485 | 0.0671 | Cc1nc(OCC(F)(F)F)cnc1C(=O)Nc1ccc(F)c([C@@]2(C)N=C(N)S[C@@]3(C(F)F)C[C@@H]23)c1 [Example 623, N-(3-((1S,5S,6S)-3-amino-1-(difluoromethyl)-5-methyl-2-thia-4-azabicyclo[4.1.0]hept-3-en-5-yl)-4-fluorophenyl)-3-methyl-5-(2,2,2-trifluoroethoxy)-2-pyrazinecarboxamide] |
| 0.0298 | > 400 | 0.00394 | 0.0435 | COc1ncc(NC(=O)c2ccc(Cl)cn2)cc1[C@@]1(C)N=C(N)S[C@@]2(CF)C[C@H]21 [Example 624, N-(5-((1S,5S,6S)-3-amino-1-(fluoromethyl)-5-methyl-2-thia-4-azabicyclo[4.1.0]hept-3-en-5-yl)-6-methoxy-3-pyridinyl)-5-chloro-2-pyridinecarboxamide] |
| 0.0309 | 730 | 0.401 | 0.014 | C#CCOc1cnc2c(Nc3cnc(OC)c([C@@]4(C)N=C(N)S[C@@]5(CF)C[C@H]54)c3)ncnc2c1 [Example 625, N-(5-((1S,5S,6S)-3-amino-1-(fluoromethyl)-5-methyl-2-thia-4-azabicyclo[4.1.0]hept-3-en-5-yl)-6-methoxy-3-pyridinyl)-7-(2-propyn-1-yloxy)pyrido[3,2-d]pyrimidin-4-amine] |
| 0.0164 | 1080 | 0.2 | 0.00509 | COc1ncc(Nc2nccc3nc(OCc4ncco4)cnc23)cc1[C@@]1(C)N=C(N)S[C@@]2(CF)C[C@H]21 [Example 626, N-(5-((1S,5S,6S)-3-amino-1-(fluoromethyl)-5-methyl-2-thia-4-azabicyclo[4.1.0]hept-3-en-5-yl)-6-methoxy-3-pyridinyl)-2-(1,3-oxazol-2-ylmethoxy)pyrido[3,4-b]pyrazin-5-amine] |

More lines, now with the values behind:

| Structure (SMILES) | IC50 (human recombinant BACE1) [µM] | IC50 (Recombinant Cat D) [µM] | IC50 (human recombinant BACE2) [µM] | IC50 [1] [µM] |
| --- | --- | --- | --- | --- |
| C#CCOc1cnc(C(=O)Nc2cnc(F)c([C@@]3(C)N=C(N)S[C@@]4(CF)C[C@H]43)c2)cn1 [Example 606, N-(5-((1S,5S,6S)-3-amino-1-(fluoromethyl)-5-methyl-2-thia-4-azabicyclo[4.1.0]hept-3-en-5-yl)-6-fluoropyridin-3-yl)-5-(prop-2-yn-1-yloxy)pyrazine-2-carboxamide] | 0.00032 | 278 | 0.00931 | 0.000849 |
| C[C@]1(c2cc(NC(=O)c3cnc(OCc4ncco4)cn3)cnc2F)N=C(N)S[C@@]2(CF)C[C@H]21 [Example 607, N-(5-((1S,5S,6S)-3-amino-1-(fluoromethyl)-5-methyl-2-thia-4-azabicyclo[4.1.0]hept-3-en-5-yl)-6-fluoro-3-pyridinyl)-5-(1,3-oxazol-2-ylmethoxy)-2-pyrazinecarboxamide] | 0.000975 | > 400 | 0.0237 | 0.000956 |
| C[C@]1(c2cc(Nc3ncnc4cc(OCc5ncco5)cnc34)cnc2F)N=C(N)S[C@@]2(CC#N)C[C@H]21 [Example 608, ((1R,5S,6S)-3-amino-5-(2-fluoro-5-((7-(1,3-oxazol-2-ylmethoxy)pyrido[3,2-d]pyrimidin-4-yl)amino)-3-pyridinyl)-5-methyl-2-thia-4-azabicyclo[4.1.0]hept-3-en-1-yl)acetonitrile] | 0.00285 | > 400 | 0.154 | 0.00174 |
| C[C@]1(c2cc(NC(=O)c3ccc(OCC(F)(F)C(F)F)cn3)cnc2F)N=C(N)S[C@@]2(CF)C[C@H]21 [Example 609, N-(5-((1S,5S,6S)-3-amino-1-(fluoromethyl)-5-methyl-2-thia-4-azabicyclo[4.1.0]hept-3-en-5-yl)-6-fluoro-3-pyridinyl)-5-(2,2,3,3-tetrafluoropropoxy)-2-pyridinecarboxamide] | 0.00344 | > 400 | 0.466 | 0.0194 |
| C[C@]1(c2cc(NC(=O)c3cnc(OCC(F)(F)C(F)F)cn3)cnc2F)N=C(N)S[C@@]2(CF)C[C@H]21 [Example 610, N-(5-((1S,5S,6S)-3-amino-1-(fluoromethyl)-5-methyl-2-thia-4-azabicyclo[4.1.0]hept-3-en-5-yl)-6-fluoro-3-pyridinyl)-5-(2,2,3,3-tetrafluoropropoxy)-2-pyrazinecarboxamide] | 0.00178 | > 400 | 0.193 | 0.00597 |
| C#CCOc1cnc2c(Nc3cnc(OC)c([C@@]4(C)N=C(N)S[C@@]5(CF)C[C@H]54)c3)nccc2n1 [Example 611, N-(5-((1S,5S,6S)-3-amino-1-(fluoromethyl)-5-methyl-2-thia-4-azabicyclo[4.1.0]hept-3-en-5-yl)-6-methoxy-3-pyridinyl)-2-(2-propyn-1-yloxy)pyrido[3,4-b]pyrazin-5-amine] | 0.00663 | > 400 | 0.208 | 0.00649 |
| [2H]C([2H])([2H])C#CC([2H])([2H])Oc1cnc2c(Nc3cnc(F)c([C@@]4(C)N=C(N)S[C@@]5(CF)C[C@H]54)c3)nccc2n1 [Example 613, N-(5-((1S,5S,6S)-3-amino-1-(fluoromethyl)-5-methyl-2-thia-4-azabicyclo[4.1.0]hept-3-en-5-yl)-6-fluoro-3-pyridinyl)-2-((~2~H_5_)-2-butyn-1-yloxy)pyrido[3,4-b]pyrazin-5-amine] | 0.000555 | 709 | 0.0123 | 0.00098 |
| Cc1nc(OCC(F)(F)F)cnc1C(=O)Nc1cc(F)c(F)c([C@@]2(C)N=C(N)S[C@@]3(CF)C[C@H]32)c1 [Example 614, N-(3-((1S,5S,6S)-3-amino-1-(fluoromethyl)-5-methyl-2-thia-4-azabicyclo[4.1.0]hept-3-en-5-yl)-4,5-difluorophenyl)-3-methyl-5-(2,2,2-trifluoroethoxy)-2-pyrazinecarboxamide] | 0.00361 | 340 | 0.101 | 0.0755 |
